Data as given in the supplement of paper PMC10307832.

Assays:
Assay in all cases: relative viability (nuclei count vs DMSO), 5 days (fraction); higher = more cells survive
[1] = compound: CC1=NC=CC(=C1)C2=CC=C(C=C2)CC(=O)NC3=CC=C(C=C3)C4=CN=CC=C4 [Wnt-C59] + CC1(C)CCC(c2ccc(Cl)cc2)=C(CN2CCN(c3ccc(C(=O)NS(=O)(=O)c4ccc(N[C@H](CCN5CCOCC5)CSc5ccccc5)c(S(=O)(=O)C(F)(F)F)c4)cc3)CC2)C1 [Navitoclax] (partner 0.5 µM)
Summary of the method: (§1)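 Lung cancer cell lines were seeded in 1536-well plates and dosed by pin tool the next day, with either a single drug or a fixed anchor-drug dose combined with five library-drug doses (not always all listed) spaced in √10 steps. Five days later, one step fixed the cells and stained their nuclei (final 0.05% Triton X-100, 1% formaldehyde, 1 ug/ml Hoechst), and nuclei were counted on 4× images. Relative viability is the nuclei count in treated wells divided by the count in vehicle wells, and each value is the median of duplicate plates.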

[2] = compound: CC1=NC=CC(=C1)C2=CC=C(C=C2)CC(=O)NC3=CC=C(C=C3)C4=CN=CC=C4 [Wnt-C59] + Cc1cc(Nc2cc(N3CCN(C)CC3)nc(Sc3ccc(NC(=O)C4CC4)cc3)n2)n[nH]1 [Tozasertib] (partner 0.1 µM)
Summary of the method: as §1

[3] = compound: CC1=NC=CC(=C1)C2=CC=C(C=C2)CC(=O)NC3=CC=C(C=C3)C4=CN=CC=C4 [Wnt-C59] + N=C(N)NC(=N)NCCc1ccccc1 [Phenformin] (partner 250 µM)
Summary of the method: as §1

[4] = compound: CS(=O)(=O)CCNCc1ccc(-c2ccc3ncnc(Nc4ccc(OCc5cccc(F)c5)c(Cl)c4)c3c2)o1 [Lapatinib] + CC(C)C[C@H](NC(=O)[C@H](Cc1ccccc1)NC(=O)c1cnccn1)B(O)O [Bortezomib] (partner 0.002 µM)
Summary of the method: as §1

| Cell Line | relative viability ([1]; first compound 0.001 µM) | relative viability ([1]; first compound 0.01 µM) | relative viability ([1]; first compound 0.03162 µM) | relative viability ([1]; first compound 0.1 µM) | relative viability ([2]; first compound 0.001 µM) | relative viability ([2]; first compound 0.01 µM) | relative viability ([2]; first compound 0.03162 µM) | relative viability ([2]; first compound 0.1 µM) | relative viability ([3]; first compound 0.001 µM) | relative viability ([3]; first compound 0.01 µM) | relative viability ([3]; first compound 0.03162 µM) | relative viability ([3]; first compound 0.1 µM) | relative viability ([4]; first compound 0.2 µM) | relative viability ([4]; first compound 0.6325 µM) | relative viability ([4]; first compound 2 µM) | relative viability ([4]; first compound 0.02 µM) | relative viability ([4]; first compound 0.06325 µM) |
| --- | --- | --- | --- | --- | --- | --- | --- | --- | --- | --- | --- | --- | --- | --- | --- | --- | --- |
| NCI-H23 | 0.723 | 0.775 | 1.04 | 0.805 | 0.377 | 0.33 | 0.446 | 0.333 | 0.842 | 0.663 | 0.907 | 0.749 | 1.02 | 1.07 | 0.813 |  |  |
| NCI-H322M | 1.21 | 1.05 | 0.978 | 0.993 | 0.444 | 0.432 | 0.454 | 0.427 | 0.775 | 0.683 | 0.629 | 0.581 | 1.08 | 1.23 | 1.3 | 1.12 | 1.02 |
| NCI-H441 | 0.709 | 1.06 | 0.743 | 0.517 | 0.691 | 0.646 | 0.691 | 0.566 | 0.845 | 0.732 | 1.04 | 0.724 | 0.45 | 0.379 | 0.657 |  | 0.628 |
| NCI-H460 | 0.968 | 1.18 | 1.11 | 1.04 | 0.465 | 0.0488 | 0.555 | 0.48 | 0.488 | 0.524 | 0.519 | 0.484 | 1.15 | 0.984 | 1.11 | 1.02 | 1.02 |
| NCI-H520 | 1.11 | 1.13 | 1.11 | 1.05 | 0.434 | 0.54 | 0.496 | 0.43 | 0.503 | 0.59 | 0.59 | 0.55 | 0.59 | 0.54 | 0.416 | 0.699 | 0.388 |
| NCI-H596 | 1.04 | 0.802 | 1.05 | 1.05 | 0.943 | 0.778 | 0.882 | 0.905 | 0.746 | 0.71 | 0.923 | 0.722 | 0.964 | 1.03 | 0.776 | 1.17 | 1.04 |
| NCI-H647 | 1.16 | 0.972 | 1.12 | 0.967 | 0.448 | 0.27 | 0.167 | 0.179 | 0.479 | 0.453 | 0.578 | 0.481 | 1.11 | 1.13 | 0.871 | 0.909 | 0.708 |
| NCI-H727 | 0.554 | 0.542 | 0.459 | 0.451 | 0.702 | 0.547 | 0.586 | 0.565 | 0.337 |  | 0.545 | 0.66 | 1.04 | 1.09 | 0.801 | 0.758 | 0.78 |
